System: PBS pH 7.4 stability, 37 C, LC-MS/MS, 48 h
Assay: Inhibitors of 12-hLO: PBS Stability Profiling
Conditions: at 2 µM; stronger effect = higher value
Description: Assay Provider: Holman, T.R., University of California, Santa Cruz Grant #: MH08128301 Screening Center PI: Austin, C.P. Screening Center: NIH Chemical Genomics Center [NCGC] Human lipoxygenase 12hLO is a member of the closely related lipoxygenase family of enzymes which catalyze the site-specific oxidation of arachidonic acid to various hormone precursor molecules and as such is a candidate for drug development in a variety of disease areas, such as cancer and inflammation. After qHTS, hits were confirmed in follow-up assays, and leads were optimized through SAR. The resulting lead compound was further characterized through a battery ADME-Tox experiments, and this assay describes its stability in PBS buffer. The stability of the lead compound in PBS buffer is tested because this parameter has a significant impact on many ADME-concerned properties of drugs, such as uptake, distribution, transport, and eventually bioavailability.
2microM of compound is incubated in PBS buffer at pH 7; the reference compound is procaine. Compounds are incubated at 37 deg C for the pre-determined time periods and the when aliquots are removed. Samples are analyzed with LC-MS/MS.

percent remaining: 100%
Compound: CC(=O)NC(c1cccs1)c1cc(Br)c2cccnc2c1O (stereo unspecified)
